The test system of this test is mouse splenocytes. The test is described as follows: Mouse splenocyte cytokine secretion (IL-6, IL-12, IFN by ELISA). The class given is cell-based, BALB/c mice. Particulars: 24 h. Here is the method:
Polynucleotides and chimeric compounds were tested for immunostimulatory activity on mouse splenocytes. Immunostimulation was assessed by measurement of cytokine secretion into the culture media. Cytokine levels in the culture supernatant were determined by enzyme-linked immunosorbent assay (ELISA) tests.
Cells were isolated and prepared using standard techniques. Spleens of 8 to 20 week-old BALB/c mice were harvested and the splenocytes isolated using standard teasing and treatment with ACK lysing buffer from BioWhittaker, Inc. Four spleens were pooled in this experiment. Isolated cells were washed in RPMI 1640 media supplemented with 2% heat-inactivated fetal calf serum (FCS), 50 μM 2-mercaptoethanol, 1% penicillin-streptomycin, and 2 mM L-glutamine and resuspended at approximately […] in 10% FCS/RPMI (RPMI 1640 media with 10% heat-inactivated FCS, 50 μM 2-mercaptoethanol, 1% penicillin-streptomycin, and 2 mM L-glutamine).
Cell cultures were set up in triplicate with approximately 7×10^5 cells/well in a 96-well flat microtiter plate in 100 μl 10% FCS/RPMI with the cells allowed to rest for at lest 1 hour after plating. The indicated test compounds were incubated (at the indicated concentrations) for 24 hours at 37° C. Cell supernatants were harvested and frozen at −80° C. Cytokine production by the cells was determined by ELISAs, as shown in 19.

This is an account of results in patent US9028845B2, “Chimeric immunomodulatory compounds and methods of using the same-IV” (Dynavax Technologies Corporation, priority 2001, dated 2015).

Under “dose 0.1 μg/ml”, “5′-TGACTGTGAACGTTCGAGATGA-3′ (SEQ ID NO: 2) [Compound P-6, reference compound]” came in with an IFN of 187 and an IL-12 of 1665. Under “dose 1.0 μg/ml”, this substance came in with an IFN of 2175, an IL-6 of 5760 and an IL-12 of 4565. For the setting “dose 5.0 μg/ml”, the IFN is 2505, the IL-6 amounted to 9311 and the IL-12 came out at 5374.
